ChEMBL document CHEMBL1152560, “Substituted 2-arylbenzothiazoles as kinase inhibitors: hit-to-lead optimization” (Bioorg Med Chem, 2009)

Key:
[1] = target: Proto-oncogene tyrosine-protein kinase Src (Homo sapiens) (UniProt P12931); test: Residual activity of SRC at 0.1 uM by microplate scintillation counting
[2] = target: 3-phosphoinositide-dependent protein kinase 1 (Homo sapiens) (UniProt O15530); test: Residual activity of PDK1 at 1 uM by microplate scintillation counting
[3] = target: T1, Lymphokine-activated killer T-cell-originated protein kinase (Homo sapiens) (UniProt Q96KB5); test: Residual activity of PBK at 1 uM by microplate scintillation counting
T1 sequence (whole entry): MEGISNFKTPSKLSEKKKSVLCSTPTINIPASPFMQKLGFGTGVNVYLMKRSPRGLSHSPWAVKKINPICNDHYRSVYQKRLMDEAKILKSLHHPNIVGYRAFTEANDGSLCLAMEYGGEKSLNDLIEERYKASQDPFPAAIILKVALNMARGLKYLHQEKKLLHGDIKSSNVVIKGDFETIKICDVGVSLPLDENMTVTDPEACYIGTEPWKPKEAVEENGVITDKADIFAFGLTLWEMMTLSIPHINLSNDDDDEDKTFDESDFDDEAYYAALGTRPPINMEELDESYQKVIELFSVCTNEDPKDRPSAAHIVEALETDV

[4] = target: T2, Tyrosine-protein kinase Mer (Homo sapiens) (UniProt Q12866); test: Residual activity of MERTK at 1 uM by microplate scintillation counting
T2 sequence (whole entry): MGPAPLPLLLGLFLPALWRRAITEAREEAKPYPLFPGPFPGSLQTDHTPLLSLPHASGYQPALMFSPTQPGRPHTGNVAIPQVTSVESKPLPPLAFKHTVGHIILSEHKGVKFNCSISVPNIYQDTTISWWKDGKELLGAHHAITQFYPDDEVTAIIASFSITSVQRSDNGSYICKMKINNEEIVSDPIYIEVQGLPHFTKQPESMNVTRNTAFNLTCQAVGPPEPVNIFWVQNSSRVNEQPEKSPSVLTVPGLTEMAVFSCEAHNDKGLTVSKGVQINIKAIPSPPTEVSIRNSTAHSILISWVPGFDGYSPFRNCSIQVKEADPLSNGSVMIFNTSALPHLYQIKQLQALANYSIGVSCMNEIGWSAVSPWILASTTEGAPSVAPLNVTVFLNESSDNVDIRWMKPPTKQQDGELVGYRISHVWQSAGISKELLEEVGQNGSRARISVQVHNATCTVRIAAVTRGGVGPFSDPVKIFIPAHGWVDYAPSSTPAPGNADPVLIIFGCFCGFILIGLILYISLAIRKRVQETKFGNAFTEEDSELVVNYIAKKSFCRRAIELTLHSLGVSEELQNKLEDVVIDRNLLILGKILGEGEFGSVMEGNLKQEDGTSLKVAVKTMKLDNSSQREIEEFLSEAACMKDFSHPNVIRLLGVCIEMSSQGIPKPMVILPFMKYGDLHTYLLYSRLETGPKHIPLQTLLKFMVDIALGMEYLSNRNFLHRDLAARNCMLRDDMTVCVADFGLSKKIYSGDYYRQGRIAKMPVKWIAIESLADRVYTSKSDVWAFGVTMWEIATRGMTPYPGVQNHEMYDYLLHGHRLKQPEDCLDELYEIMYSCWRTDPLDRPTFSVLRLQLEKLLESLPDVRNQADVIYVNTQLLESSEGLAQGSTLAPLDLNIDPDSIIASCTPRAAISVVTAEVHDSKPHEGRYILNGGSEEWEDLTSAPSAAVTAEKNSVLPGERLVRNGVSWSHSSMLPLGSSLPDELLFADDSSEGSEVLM

[5] = target: Ribosomal protein S6 kinase alpha-5 (Homo sapiens) (UniProt O75582); test: Residual activity of RPS6KA5 at 1 uM by microplate scintillation counting
[6] = target: Serine/threonine-protein kinase N2 (Homo sapiens) (UniProt Q16513); test: Residual activity of PRK2 at 10 uM by microplate scintillation counting
[7] = test system: Epidermal growth factor receptor (Homo sapiens), P00533 [T790M]; test: Residual activity of EGFR T790M mutant at 1 uM by microplate scintillation counting
[8] = test system: Tyrosine-protein kinase ABL1 (Homo sapiens), P00519 [T315I]; test: Residual activity of ABL1 T315I mutant at 0.1 uM by microplate scintillation counting
[9] = target: Serine/threonine-protein kinase N1 (Homo sapiens) (UniProt Q16512); test: Residual activity of PRK1 at 1 uM by microplate scintillation counting
[10] = target: Activated CDC42 kinase 1 (Homo sapiens) (UniProt Q07912); test: Residual activity of ACK1 at 10 uM by microplate scintillation counting
[11] = target: T3, Serine/threonine-protein kinase Nek2 (Homo sapiens) (UniProt P51955); test: Residual activity of NEK2 at 1 uM by microplate scintillation counting
T3 sequence (whole entry): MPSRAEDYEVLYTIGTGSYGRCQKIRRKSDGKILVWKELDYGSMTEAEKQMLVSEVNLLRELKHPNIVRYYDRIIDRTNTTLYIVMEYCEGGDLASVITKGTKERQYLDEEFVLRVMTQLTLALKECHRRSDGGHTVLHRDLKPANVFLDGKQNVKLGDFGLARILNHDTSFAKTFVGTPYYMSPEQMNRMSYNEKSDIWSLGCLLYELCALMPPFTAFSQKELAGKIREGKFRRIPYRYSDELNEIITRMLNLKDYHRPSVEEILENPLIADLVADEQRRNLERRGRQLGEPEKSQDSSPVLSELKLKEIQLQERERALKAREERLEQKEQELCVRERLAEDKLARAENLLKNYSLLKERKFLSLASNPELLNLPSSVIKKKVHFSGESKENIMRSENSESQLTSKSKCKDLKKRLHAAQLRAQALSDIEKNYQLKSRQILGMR

[12] = target: T4, Serine/threonine-protein kinase NLK (Homo sapiens) (UniProt Q9UBE8); test: Residual activity of NLK at 0.1 uM by microplate scintillation counting
T4 sequence (whole entry): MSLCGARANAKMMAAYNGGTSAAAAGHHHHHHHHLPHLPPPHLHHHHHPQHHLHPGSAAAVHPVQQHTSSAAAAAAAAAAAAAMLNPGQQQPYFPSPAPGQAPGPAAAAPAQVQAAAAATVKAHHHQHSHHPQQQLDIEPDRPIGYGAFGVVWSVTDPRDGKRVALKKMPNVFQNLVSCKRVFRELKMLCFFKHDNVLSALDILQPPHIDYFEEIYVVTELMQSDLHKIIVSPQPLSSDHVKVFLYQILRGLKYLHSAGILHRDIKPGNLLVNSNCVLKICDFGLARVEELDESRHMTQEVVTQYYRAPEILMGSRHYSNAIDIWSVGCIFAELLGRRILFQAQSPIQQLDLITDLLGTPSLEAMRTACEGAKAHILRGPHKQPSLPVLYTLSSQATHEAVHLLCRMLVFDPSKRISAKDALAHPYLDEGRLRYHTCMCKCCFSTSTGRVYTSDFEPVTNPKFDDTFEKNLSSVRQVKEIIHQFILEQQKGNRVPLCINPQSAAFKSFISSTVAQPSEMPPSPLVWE

Sequence of Serine/threonine-protein kinase N1 (Homo sapiens) (Q16512 2-942 limits assumed): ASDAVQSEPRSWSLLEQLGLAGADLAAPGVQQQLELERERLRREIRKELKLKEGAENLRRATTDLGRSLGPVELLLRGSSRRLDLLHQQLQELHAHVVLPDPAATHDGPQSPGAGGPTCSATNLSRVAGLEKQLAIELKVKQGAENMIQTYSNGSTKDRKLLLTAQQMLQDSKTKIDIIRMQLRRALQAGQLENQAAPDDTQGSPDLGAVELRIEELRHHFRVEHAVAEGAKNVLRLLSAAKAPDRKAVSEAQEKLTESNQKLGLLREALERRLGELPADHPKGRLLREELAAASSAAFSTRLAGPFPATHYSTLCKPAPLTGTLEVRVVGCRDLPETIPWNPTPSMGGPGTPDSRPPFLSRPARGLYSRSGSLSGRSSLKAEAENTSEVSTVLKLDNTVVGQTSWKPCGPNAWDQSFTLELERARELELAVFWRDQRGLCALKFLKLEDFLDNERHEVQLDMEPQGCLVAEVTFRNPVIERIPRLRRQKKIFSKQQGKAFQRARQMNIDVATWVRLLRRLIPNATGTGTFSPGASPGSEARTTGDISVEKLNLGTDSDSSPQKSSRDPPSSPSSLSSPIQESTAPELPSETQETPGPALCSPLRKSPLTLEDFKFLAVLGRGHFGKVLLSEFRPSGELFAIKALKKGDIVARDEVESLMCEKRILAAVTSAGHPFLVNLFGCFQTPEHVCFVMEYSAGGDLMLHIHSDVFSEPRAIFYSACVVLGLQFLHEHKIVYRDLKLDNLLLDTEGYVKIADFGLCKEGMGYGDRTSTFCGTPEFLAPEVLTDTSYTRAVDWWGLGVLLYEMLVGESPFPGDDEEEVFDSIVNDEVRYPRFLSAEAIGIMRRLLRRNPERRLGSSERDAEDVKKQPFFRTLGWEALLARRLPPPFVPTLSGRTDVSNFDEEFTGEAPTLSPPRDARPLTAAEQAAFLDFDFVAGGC
Sequence of Activated CDC42 kinase 1 (Homo sapiens) (Q07912 whole entry, looked up): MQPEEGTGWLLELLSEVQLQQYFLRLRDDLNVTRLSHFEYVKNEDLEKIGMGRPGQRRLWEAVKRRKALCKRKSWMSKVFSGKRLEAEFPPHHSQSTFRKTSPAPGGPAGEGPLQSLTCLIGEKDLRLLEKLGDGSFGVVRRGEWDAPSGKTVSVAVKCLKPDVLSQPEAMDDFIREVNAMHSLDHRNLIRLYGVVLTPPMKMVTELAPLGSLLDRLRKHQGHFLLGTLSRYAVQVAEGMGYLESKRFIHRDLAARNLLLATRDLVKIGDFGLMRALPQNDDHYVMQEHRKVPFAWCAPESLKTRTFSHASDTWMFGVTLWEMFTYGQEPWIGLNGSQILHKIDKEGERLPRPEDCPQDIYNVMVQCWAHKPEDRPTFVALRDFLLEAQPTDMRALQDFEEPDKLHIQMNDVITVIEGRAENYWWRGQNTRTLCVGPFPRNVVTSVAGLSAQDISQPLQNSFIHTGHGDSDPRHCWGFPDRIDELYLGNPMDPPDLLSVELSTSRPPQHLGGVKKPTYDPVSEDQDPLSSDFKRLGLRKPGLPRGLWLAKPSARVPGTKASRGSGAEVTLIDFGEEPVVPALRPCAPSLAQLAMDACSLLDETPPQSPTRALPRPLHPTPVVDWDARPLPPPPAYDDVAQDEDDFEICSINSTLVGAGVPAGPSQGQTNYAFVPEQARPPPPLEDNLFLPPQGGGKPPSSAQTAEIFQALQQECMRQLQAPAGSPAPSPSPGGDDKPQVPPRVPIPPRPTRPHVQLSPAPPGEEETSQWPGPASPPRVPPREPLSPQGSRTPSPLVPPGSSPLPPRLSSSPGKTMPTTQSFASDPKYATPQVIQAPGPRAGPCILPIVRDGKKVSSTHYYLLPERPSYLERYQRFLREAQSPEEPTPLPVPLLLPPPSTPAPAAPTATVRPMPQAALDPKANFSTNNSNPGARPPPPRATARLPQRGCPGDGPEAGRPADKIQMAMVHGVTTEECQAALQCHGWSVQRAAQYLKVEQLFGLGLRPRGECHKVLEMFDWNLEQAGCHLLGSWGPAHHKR
Sequence of Ribosomal protein S6 kinase alpha-5 (Homo sapiens) (O75582 whole entry, looked up): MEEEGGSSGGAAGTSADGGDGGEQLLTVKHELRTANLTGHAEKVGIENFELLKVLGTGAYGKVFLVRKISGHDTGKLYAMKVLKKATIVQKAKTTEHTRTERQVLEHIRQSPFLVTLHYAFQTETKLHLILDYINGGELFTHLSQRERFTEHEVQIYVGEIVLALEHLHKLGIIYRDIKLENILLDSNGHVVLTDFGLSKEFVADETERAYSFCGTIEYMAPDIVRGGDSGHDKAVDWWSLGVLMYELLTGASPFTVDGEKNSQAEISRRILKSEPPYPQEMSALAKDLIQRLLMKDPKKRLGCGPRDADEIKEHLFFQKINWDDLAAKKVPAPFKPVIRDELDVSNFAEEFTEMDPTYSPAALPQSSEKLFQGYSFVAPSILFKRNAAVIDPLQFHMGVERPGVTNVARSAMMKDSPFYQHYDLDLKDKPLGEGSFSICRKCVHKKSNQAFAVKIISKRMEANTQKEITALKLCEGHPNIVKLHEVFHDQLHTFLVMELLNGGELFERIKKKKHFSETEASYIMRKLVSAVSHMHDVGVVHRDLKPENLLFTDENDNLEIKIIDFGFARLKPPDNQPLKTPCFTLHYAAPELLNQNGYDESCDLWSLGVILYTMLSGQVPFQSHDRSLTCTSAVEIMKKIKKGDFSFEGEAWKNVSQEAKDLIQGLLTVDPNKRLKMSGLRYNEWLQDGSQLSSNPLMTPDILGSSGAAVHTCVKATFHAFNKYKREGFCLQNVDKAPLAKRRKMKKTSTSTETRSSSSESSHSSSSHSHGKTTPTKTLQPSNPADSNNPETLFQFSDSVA
Sequence of Proto-oncogene tyrosine-protein kinase Src (Homo sapiens) (P12931 2-536 limits assumed): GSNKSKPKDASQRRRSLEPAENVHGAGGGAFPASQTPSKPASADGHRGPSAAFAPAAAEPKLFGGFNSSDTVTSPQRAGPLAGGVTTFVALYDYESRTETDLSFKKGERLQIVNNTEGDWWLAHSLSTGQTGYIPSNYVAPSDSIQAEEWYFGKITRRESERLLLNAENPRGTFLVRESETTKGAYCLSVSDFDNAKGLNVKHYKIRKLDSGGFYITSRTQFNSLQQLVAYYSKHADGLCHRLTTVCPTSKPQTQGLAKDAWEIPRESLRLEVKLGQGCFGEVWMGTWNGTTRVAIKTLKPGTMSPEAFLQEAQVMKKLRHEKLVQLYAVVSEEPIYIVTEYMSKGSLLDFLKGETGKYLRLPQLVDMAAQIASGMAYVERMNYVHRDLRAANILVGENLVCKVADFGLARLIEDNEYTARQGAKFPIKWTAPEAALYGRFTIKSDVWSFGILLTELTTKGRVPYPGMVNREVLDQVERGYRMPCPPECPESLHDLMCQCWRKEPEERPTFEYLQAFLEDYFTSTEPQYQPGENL
Sequence of Serine/threonine-protein kinase N2 (Homo sapiens) (Q16513 whole entry, looked up): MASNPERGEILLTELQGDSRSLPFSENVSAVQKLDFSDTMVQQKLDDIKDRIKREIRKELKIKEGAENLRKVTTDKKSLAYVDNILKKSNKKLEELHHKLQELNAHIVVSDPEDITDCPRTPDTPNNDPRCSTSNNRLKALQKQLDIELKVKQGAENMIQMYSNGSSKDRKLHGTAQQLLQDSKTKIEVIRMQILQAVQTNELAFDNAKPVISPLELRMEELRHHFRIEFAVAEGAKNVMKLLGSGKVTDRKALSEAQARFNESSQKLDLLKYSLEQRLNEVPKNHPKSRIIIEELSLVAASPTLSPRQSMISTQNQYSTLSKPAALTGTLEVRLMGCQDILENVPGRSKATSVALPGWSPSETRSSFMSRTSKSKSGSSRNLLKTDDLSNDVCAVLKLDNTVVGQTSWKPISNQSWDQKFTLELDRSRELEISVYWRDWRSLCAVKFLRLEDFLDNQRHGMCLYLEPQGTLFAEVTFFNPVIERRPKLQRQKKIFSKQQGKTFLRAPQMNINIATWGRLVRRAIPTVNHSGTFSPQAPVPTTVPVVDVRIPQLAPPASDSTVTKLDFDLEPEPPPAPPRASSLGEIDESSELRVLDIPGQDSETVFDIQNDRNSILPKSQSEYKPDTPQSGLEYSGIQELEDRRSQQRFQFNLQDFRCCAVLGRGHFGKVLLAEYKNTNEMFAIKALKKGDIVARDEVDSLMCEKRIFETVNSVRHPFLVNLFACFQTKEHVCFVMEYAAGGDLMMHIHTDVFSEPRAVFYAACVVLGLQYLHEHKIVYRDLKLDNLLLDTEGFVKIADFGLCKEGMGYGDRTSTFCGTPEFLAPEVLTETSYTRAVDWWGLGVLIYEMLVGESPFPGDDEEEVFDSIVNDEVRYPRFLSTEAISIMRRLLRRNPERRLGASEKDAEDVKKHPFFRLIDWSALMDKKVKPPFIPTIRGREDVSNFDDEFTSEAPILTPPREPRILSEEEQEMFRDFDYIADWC
Sequence of 3-phosphoinositide-dependent protein kinase 1 (Homo sapiens) (O15530 whole entry, looked up): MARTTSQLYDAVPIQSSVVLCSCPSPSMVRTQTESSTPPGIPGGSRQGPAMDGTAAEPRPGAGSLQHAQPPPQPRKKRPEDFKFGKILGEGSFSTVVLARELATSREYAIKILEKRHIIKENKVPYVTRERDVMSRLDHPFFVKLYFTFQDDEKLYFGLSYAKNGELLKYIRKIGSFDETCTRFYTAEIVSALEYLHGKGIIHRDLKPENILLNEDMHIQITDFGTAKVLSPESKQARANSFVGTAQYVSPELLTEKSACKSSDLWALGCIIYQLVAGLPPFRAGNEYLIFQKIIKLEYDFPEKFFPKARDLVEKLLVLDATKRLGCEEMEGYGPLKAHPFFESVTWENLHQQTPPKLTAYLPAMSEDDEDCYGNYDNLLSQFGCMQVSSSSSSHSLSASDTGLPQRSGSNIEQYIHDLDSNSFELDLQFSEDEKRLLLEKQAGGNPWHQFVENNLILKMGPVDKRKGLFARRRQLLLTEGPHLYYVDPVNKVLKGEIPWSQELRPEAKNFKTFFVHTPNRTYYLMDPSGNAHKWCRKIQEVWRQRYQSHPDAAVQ

Structure (SMILES) | residual activity [1] [%] | residual activity [2] [%] | residual activity [3] [%] | residual activity [4] [%] | residual activity [5] [%] | residual activity [6] [%] | residual activity [7] [%] | residual activity [8] [%] | residual activity [9] [%] | residual activity [10] [%] | residual activity [11] [%] | residual activity [12] [%]
COc1cc2c(Oc3ccc(-c4nc5ccccc5s4)cc3F)ncnc2cc1OCCCN1CCN(C)CC1 | 100 | 108 | 96 | 19 | 71 | 75 | 88 | 100 | 99 | 40 | 89 | 91
COc1cc2c(Oc3ccc(-c4nc5ccccc5s4)cc3)ncnc2cc1OCCCN1CCCC1 | 100 | 102 | 103 | 11 | 87 | 85 | 85 | 98 | 97 | 31 | 89 | 90
COc1cc2c(Oc3ccc(-c4nc5ccccc5s4)cc3)ncnc2cc1OCCCN1CCN(C)CC1 | 100 | 101 | 100 | 16 | 81 | 95 | 88 | 96 | 98 | 35 | 81 | 94
